From patent US9868705B2, “Tetra-aryl cyclobutane inhibitors of androgen receptor action for the treatment of hormone refractory cancer” (The Board of Trustees of the University of Illinois, priority 2013, dated 2018)
Residue numbers refer to the chain shown, from its start. pIC50: −log10 of the molar value. Where two headings read alike, the source gives them in different places.

What was measured:
[1] = target: T1, T877A mutant androgen receptor (Homo sapiens, UniProt P10275, T878A); assay: FKBP51 endogenous gene expression in LNCaP-XIP cells; type: cell-based
T1 construct: endogenous in cells; host or cells: LNCaP-XIP
T1 sequence (P10275 1-920 T878A): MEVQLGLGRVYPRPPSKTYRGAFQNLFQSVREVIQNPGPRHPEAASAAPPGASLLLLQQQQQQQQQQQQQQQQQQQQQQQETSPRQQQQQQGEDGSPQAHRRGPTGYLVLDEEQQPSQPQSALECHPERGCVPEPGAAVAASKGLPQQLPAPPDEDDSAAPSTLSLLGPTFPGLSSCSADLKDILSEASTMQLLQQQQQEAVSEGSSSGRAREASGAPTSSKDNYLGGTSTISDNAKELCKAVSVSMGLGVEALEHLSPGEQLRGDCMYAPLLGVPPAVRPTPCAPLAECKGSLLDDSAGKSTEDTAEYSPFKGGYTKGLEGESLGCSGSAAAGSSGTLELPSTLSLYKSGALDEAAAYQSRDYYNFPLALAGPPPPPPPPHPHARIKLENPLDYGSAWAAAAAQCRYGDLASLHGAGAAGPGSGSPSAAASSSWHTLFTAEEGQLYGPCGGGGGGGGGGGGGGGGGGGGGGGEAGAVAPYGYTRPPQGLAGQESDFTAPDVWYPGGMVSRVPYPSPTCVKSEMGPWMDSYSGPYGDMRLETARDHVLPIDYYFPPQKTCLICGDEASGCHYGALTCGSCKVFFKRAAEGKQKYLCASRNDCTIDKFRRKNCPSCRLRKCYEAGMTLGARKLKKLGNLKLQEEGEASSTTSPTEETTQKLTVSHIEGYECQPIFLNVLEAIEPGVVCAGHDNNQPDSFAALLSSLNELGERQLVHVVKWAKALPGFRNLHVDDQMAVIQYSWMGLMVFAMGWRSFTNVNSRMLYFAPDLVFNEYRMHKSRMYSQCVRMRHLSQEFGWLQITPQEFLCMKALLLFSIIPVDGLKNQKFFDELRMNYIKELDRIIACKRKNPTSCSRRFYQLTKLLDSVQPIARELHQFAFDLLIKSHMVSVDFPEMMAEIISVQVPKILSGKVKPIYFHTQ
Excerpt: (§1) FIG. 44 depicts data for dose-dependent inhibition of androgen receptor-dependent endogenous gene expression of FKBP51 by Compound 1 of Example IV in LNCaP cells producing exclusively T877A mutant androgen receptor (LNCaP-XIP) and LNCaP cells transfected with wild type androgen receptor (LNCaP-androgen receptor, ratio of wild type to T877A receptor is ca. 3:1).
(§2) To more fully characterize the selectivity of compound 1 for the mutant receptor, we measured its inhibitory potential against the WT and T877A mutant receptor in an AR-dependent luciferase transcription assay in CV-1 cells (FIGS. 43A and B).

[2] = tested on: wild type androgen receptor; assay: FKBP51 endogenous gene expression in LNCaP-AR cells (wild type AR overexpressed); type: cell-based, human; details: at 20 M (so in the source)
Excerpt: as §1, §2

T877A (LNCaP) AR = target: T2, T877A (LNCaP) AR (Homo sapiens, UniProt P10275, T878A); assay: MMTV-luciferase transcription assay in CV-1 cells, T877A AR; type: cell-based
T2 construct: expressed in transfected cells; host or cells: CV-1
T2 sequence (P10275 1-920 T878A): T1 sequence (P10275 1-920 T878A)
Excerpt: These compounds were screened using an AR-responsive MMTV transcription assay in CV-1 cells, utilizing both wild type and T877A (LNCaP) AR. […]

AR = target: T3, AR (Homo sapiens, UniProt P10275); assay: AR relative binding affinity (RBA)
T3 sequence (P10275 1-920): T1 sequence (P10275 1-920 T878A) with A878T

LNCaP cells = assay: LNCaP cell proliferation

- concentration at which maximal inhibition is obtained ([1]; FKBP51 expression, T877A mutant receptor): 2 µM
- inhibition of FKBP51 gene expression ([1]; LNCaP-XIP, 2 μM): complete inhibition
- increase in potency for T877A mutant over WT (T877A (LNCaP) AR; AR-dependent luciferase transcription assay in CV-1 cells): approximately 10 fold
- pIC50 (T877A (LNCaP) AR; CV1 transient transfection, MMTV-Luciferase reporter, read-out: IC50 T877A): 6.09
- IC50 (T877A (LNCaP) AR; T877A AR, values given in μM, read-out: MMTV transcription assay in CV-1 cells T877A (IC50)): 1.1 µM
- AR RBA (AR): 0.056%
SMILES: COc1cc([C@H]2[C@H](c3ccccc3)[C@H](c3cc(OC)nc(OC)n3)[C@H]2c2ccccc2)nc(OC)n1 [CB-22]
- inhibition of FKBP51 gene expression [2]: approximately 50%
- more potent in LNCaP cells than in VCaP cells (anti-proliferative activity) (LNCaP cells; LNCaP vs VCaP): 10-15 fold
- inhibition of LNCaP cell proliferation (LNCaP cells; androgen-stimulated LNCaP cells): slow cell-growth in a dose-dependent manner
